Measurements published in US20230141101A1, “PDE4 INHIBITOR COMPOUND AND MEDICAL USE THEREOF” (Suzhou Longbotai Pharmaceuticals Co., Ltd., priority 2020, published 2023).

Tests used:
Format in all cases: biochemical
[1] = molecular target: PDE4D2 (Homo sapiens, UniProt Q08499); test: PDE4 inhibitory activity assay (FAM-cAMP enzymatic reaction), PDE4D2; details: for inhibitory activity against PDE4D2 compared with Apremilast and WX011: compared with Apremilast and Example 11 of WO2018036470 (WX011); for IC50: read-out: PDE4 D2 inhibitory activity (IC50 value)
Chain of PDE4D2 (Q08499 303-809): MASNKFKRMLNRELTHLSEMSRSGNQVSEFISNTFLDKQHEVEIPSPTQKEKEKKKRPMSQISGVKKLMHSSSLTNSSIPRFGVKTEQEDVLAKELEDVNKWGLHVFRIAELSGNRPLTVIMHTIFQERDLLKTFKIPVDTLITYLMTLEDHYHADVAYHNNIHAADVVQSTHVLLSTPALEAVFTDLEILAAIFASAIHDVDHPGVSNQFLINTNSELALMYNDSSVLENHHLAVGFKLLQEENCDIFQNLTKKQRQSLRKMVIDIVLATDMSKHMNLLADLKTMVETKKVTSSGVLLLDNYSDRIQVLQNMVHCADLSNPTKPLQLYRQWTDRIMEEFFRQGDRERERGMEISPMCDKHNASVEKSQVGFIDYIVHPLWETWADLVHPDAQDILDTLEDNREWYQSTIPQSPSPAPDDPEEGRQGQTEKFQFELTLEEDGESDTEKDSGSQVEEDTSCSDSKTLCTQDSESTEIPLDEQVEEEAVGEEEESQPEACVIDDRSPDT
Method: (§1) The compounds of the present disclosure were tested for their inhibitory activity (IC50 value) against PDE4A1A, PDE4B1, and PDE4D2.
(§2) Positive compound: Trequinsin (Sigma, Cat No. T20S7).
(§3) Instrument: Wallac Victor Muti-lable counter (Pekin Elmer) Steps of assay:
(§4) PDE enzymatic reaction; • 1) PDE was dissolved in 1× reaction solution to prepare 2× enzyme solution; • 2) FAM-cAMP was dissolved in 1× reaction solution to prepare 2× substrate solution; • 3) Corresponding volume of the compound in DMSO was transferred to the reaction plate through Echo 550; • 4) 2× enzyme solution was added into the corresponding wells of the reaction plate and incubated with the compound solution for 15 minutes at room temperature; • 5) 2× substrate solution was added into the corresponding well of the reaction plate to initiate the reaction; • 6) After the reaction plate was incubated at room temperature for 30 min, the reaction was terminated by adding reaction stopping solution. The reaction plate was incubated at room temperature for another 60 minutes;
(§5) Inhibition rates were calculated with Excel; and IC50 for each compound was calculated with Graphpad prism.

[2] = molecular target: T1, PDE4A1A (Homo sapiens, UniProt P27815); test: PDE4 inhibitory activity assay (FAM-cAMP enzymatic reaction), PDE4A1A; details: for inhibitory activity against PDE4A1A compared with Apremilast and WX011: compared with Apremilast and Example 11 of WO2018036470 (WX011)
T1 construct: purchased BPS 60040
T1 sequence (P27815 1-647 isoform P27815-4): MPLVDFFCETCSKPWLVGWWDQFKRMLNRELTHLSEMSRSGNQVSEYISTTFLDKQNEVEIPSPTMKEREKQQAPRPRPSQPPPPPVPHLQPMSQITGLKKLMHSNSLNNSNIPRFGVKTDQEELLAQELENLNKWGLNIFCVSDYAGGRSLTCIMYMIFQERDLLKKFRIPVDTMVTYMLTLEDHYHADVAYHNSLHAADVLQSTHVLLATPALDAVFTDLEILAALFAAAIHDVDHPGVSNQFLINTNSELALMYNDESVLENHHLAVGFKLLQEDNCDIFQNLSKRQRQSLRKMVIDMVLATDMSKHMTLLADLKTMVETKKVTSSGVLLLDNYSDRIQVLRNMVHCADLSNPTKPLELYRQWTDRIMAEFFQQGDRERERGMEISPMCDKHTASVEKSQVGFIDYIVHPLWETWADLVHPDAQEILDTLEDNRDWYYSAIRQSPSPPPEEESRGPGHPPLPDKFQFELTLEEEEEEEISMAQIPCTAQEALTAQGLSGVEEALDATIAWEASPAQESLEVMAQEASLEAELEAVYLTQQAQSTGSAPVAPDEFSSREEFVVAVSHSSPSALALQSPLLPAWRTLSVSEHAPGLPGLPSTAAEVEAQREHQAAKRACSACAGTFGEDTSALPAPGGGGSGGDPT
Method: as §1, §2, §3, §4, §5

[3] = molecular target: T2, PDE4B1 (Homo sapiens, UniProt Q07343); test: PDE4 inhibitory activity assay (FAM-cAMP enzymatic reaction), PDE4B1; details: for inhibitory activity against PDE4B1 compared with Apremilast and WX011: compared with Apremilast and Example 11 of WO2018036470 (WX011)
T2 construct: purchased BPS 60041
T2 sequence (Q07343 whole entry): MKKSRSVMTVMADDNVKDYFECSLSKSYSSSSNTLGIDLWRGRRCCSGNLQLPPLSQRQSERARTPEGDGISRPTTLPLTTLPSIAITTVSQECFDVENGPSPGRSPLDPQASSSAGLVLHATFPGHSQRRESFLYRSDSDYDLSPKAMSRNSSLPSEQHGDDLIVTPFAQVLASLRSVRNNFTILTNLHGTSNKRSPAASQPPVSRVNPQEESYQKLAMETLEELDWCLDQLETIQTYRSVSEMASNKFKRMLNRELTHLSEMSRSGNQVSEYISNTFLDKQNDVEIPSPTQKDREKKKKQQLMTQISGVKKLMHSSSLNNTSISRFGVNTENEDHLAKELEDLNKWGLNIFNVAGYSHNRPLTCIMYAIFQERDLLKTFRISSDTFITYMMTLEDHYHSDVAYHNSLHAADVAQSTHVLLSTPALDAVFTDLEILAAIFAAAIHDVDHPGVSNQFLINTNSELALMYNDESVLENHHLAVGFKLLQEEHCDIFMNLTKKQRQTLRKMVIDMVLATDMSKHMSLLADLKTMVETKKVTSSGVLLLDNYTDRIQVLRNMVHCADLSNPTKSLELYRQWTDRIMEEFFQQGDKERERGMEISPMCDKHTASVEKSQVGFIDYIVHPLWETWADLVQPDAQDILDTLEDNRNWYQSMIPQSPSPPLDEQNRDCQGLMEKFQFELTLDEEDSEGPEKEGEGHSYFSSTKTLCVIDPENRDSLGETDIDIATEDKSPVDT
Method: as §1, §2, §3, §4, §5

Compound | IC50 [1] | PDE4 D2 inhibitory effect at 20 nM [1] | PDE4 A1 inhibitory effect at 20 nM [2] | PDE4 B1 inhibitory effect at 20 nM [3] | further results
CCOc1nc([C@@H](CS(C)(=O)=O)n2c(=O)[nH]c3c(C)c(-c4ccccc4F)cnc32)ccc1OC [Ex. 2, (S)-3-(1-(6-ethoxy-5-methoxypyridin-2-yl)-2-(methylsulfonyl)ethyl)-6-(2-fluorophenyl)-7-methyl-1H-imidazo[4,5-b]pyridin-2(3H)-one] | 3.4 nM |  |  |  | inhibitory activity against PDE4D2 compared with Apremilast and WX011 [1]: significantly enhanced inhibitory activity; inhibitory activity against PDE4A1A compared with Apremilast and WX011 [2]: significantly enhanced inhibitory activity
CCOc1nc([C@H](CS(C)(=O)=O)n2c(=O)[nH]c3c(C)c(-c4ccccc4F)cnc32)ccc1OC [Ex. 3, (R)-3-(1-(6-ethoxy-5-methoxypyridin-2-yl)-2-(methylsulfonyl)ethyl)-6-(2-fluorophenyl)-7-methyl-1H-imidazo[4,5-b]pyridin-2(3H)-one] | 415 nM |  |  |  | 
CCOc1nc([C@@H](CS(C)(=O)=O)n2c(=O)[nH]c3c(C)c(-c4ccccc4)cnc32)ccc1OC [Ex. 4, (S)-3-(1-(6-ethoxy-5-methoxypyridin-2-yl)-2-(methylsulfonyl)ethyl)-7-methyl-6-phenyl-1H-imidazo[4,5-b]pyridin-2(3H)-one] | 8.5 nM |  |  |  | 
CCOc1nc([C@H](CS(C)(=O)=O)n2c(=O)[nH]c3c(C)c(-c4ccccc4)cnc32)ccc1OC [Ex. 5, (R)-3-(1-(6-ethoxy-5-methoxypyridin-2-yl)-2-(methylsulfonyl)ethyl)-7-methyl-6-phenyl-1H-imidazo[4,5-b]pyridin-2(3H)-one] |  | − | − | − | 
CCOc1nc([C@@H](CS(C)(=O)=O)n2c(=O)[nH]c3c(C)c(-c4ccc(F)cc4)cnc32)ccc1OC [Ex. 6, (S)-3-(1-(6-ethoxy-5-methoxypyridin-2-yl)-2-(methylsulfonyl)ethyl)-6-(4-fluorophenyl)-7-methyl-1H-imidazo[4,5-b]pyridin-2(3H)-one] |  | = | + | + | 
CCOc1nc([C@H](CS(C)(=O)=O)n2c(=O)[nH]c3c(C)c(-c4ccc(F)cc4)cnc32)ccc1OC [Ex. 7, (R)-3-(1-(6-ethoxy-5-methoxypyridin-2-yl)-2-(methylsulfonyl)ethyl)-6-(4-fluorophenyl)-7-methyl-1H-imidazo[4,5-b]pyridin-2(3H)-one] |  | − | − | − | 
CCOc1nc([C@@H](CS(C)(=O)=O)n2c(=O)[nH]c3c(C)c(-c4ccccc4C)cnc32)ccc1OC [Ex. 8, (S)-3-(1-(6-ethoxy-5-methoxypyridin-2-yl)-2-(methylsulfonyl)ethyl)-7-methyl-6-(o-methylphenyl)-1H-imidazo[4,5-b]pyridin-2(3H)-one] | 3.8 nM |  |  |  | inhibitory activity against PDE4D2 compared with Apremilast and WX011 [1]: significantly enhanced inhibitory activity; inhibitory activity against PDE4A1A compared with Apremilast and WX011 [2]: significantly enhanced inhibitory activity; inhibitory activity against PDE4B1 compared with Apremilast and WX011 [3]: significantly enhanced inhibitory activity
CCOc1nc([C@H](CS(C)(=O)=O)n2c(=O)[nH]c3c(C)c(-c4ccccc4C)cnc32)ccc1OC [Ex. 9, (R)-3-(1-(6-ethoxy-5-methoxypyridin-2-yl)-2-(methylsulfonyl)ethyl)-7-methyl-6-(o-methylphenyl)-1H-imidazo[4,5b]pyridin-2(3H)-one] | 318 nM |  |  |  | 
CCOc1nc([C@@H](CS(C)(=O)=O)n2c(=O)[nH]c3c(C)c(-c4ccccc4CC)cnc32)ccc1OC [Ex. 10, (S)-3-(1-(6-ethoxy-5-methoxypyridin-2-yl)-2-(methylsulfonyl)ethyl)-6-(2-ethylphenyl)-7-methyl-1H-imidazo[4,5-b]pyridin-2(3H)-one] | 2.8 nM |  |  |  | inhibitory activity against PDE4D2 compared with Apremilast and WX011 [1]: significantly enhanced inhibitory activity; inhibitory activity against PDE4A1A compared with Apremilast and WX011 [2]: significantly enhanced inhibitory activity; inhibitory activity against PDE4B1 compared with Apremilast and WX011 [3]: significantly enhanced inhibitory activity
CCOc1nc([C@@H](CS(C)(=O)=O)n2c(=O)[nH]c3c(C)c(-c4ccccc4C(C)C)cnc32)ccc1OC [Ex. 11, (S)-3-(1-(6-ethoxy-5-methoxypyridin-2-yl)-2-(methylsulfonyl)ethyl)-6-(2-isopropylphenyl)-7-methyl-1H-imidazo[4,5-b]pyridin-2(3H)-one] |  | + | + | + | 
CCOc1nc([C@@H](CS(C)(=O)=O)n2c(=O)[nH]c3c(C)c(-c4ccccc4OC)cnc32)ccc1OC [Ex. 12, (S)-3-(1-(6-ethoxy-5-methoxypyridin-2-yl)-2-(methylsulfonyl)ethyl)-6-(2-methoxyphenyl)-7-methyl-1H-imidazo[4,5-b]pyridin-2(3H)-one] | 3.2 nM |  |  |  | inhibitory activity against PDE4D2 compared with Apremilast and WX011 [1]: significantly enhanced inhibitory activity; inhibitory activity against PDE4A1A compared with Apremilast and WX011 [2]: significantly enhanced inhibitory activity; inhibitory activity against PDE4B1 compared with Apremilast and WX011 [3]: significantly enhanced inhibitory activity
CCOc1nc([C@H](CS(C)(=O)=O)n2c(=O)[nH]c3c(C)c(-c4ccccc4OC)cnc32)ccc1OC [Ex. 13, (R)-3-(1-(6-ethoxy-5-methoxypyridin-2-yl)-2-(methylsulfonyl)ethyl)-6-(2-methoxyphenyl)-7-methyl-1H-imidazo[4,5-b]pyridin-2(3H)-one] | 396 nM |  |  |  | 
CCOc1nc([C@@H](CS(C)(=O)=O)n2c(=O)[nH]c3c(C)c(-c4ccccc4C(F)(F)F)cnc32)ccc1OC [Ex. 14, (S)-3-(1-(6-ethoxy-5-methoxypyridin-2-yl)-2-(methylsulfonyl)ethyl)-7-methyl-6-(2-(trifluoromethyl)phenyl)-1H-imidazo[4,5-b]pyridin-2(3H)-one] |  | = | + | + | 
CCOc1nc([C@@H](CS(C)(=O)=O)n2c(=O)[nH]c3c(C)c(-c4ccccc4C#N)cnc32)ccc1OC [Ex. 15, (S)-2-(3-(1-(6-ethoxy-5-methoxypyridin-2-yl)-2-(methylsulfonyl)ethyl)-7-methyl-2-oxo-2,3-dihydro-1H-imidazo[4,5-b]pyridin-6-yl)benzonitrile] |  | − | − | − | 
CCOc1nc([C@H](CS(C)(=O)=O)n2c(=O)[nH]c3c(C)c(-c4ccccc4C#N)cnc32)ccc1OC [Ex. 16, (R)-2-(3-(1-(6-ethoxy-5-methoxypyridin-2-yl)-2-(methylsulfonyl)ethyl)-7-methyl-2-oxo-2,3-dihydro-1H-imidazo[4,5-b]pyridin-6-yl)benzonitrile] |  | − | − | − | 
CCOc1nc([C@@H](CS(C)(=O)=O)n2c(=O)[nH]c3c(C)c(-c4ccccn4)cnc32)ccc1OC [Ex. 17, (S)-3-(1-(6-ethoxy-5-methoxypyridin-2-yl)-2-(methylsulfonyl)ethyl)-7-methyl-6-(pyridin-2-yl)-1H-imidazo[4,5-b]pyridin-2(3H)-one] |  | = | + | + | 
CCOc1nc([C@H](CS(C)(=O)=O)n2c(=O)[nH]c3c(C)c(-c4ccccn4)cnc32)ccc1OC [Ex. 18, (R)-3-(1-(6-ethoxy-5-methoxypyridin-2-yl)-2-(methylsulfonyl)ethyl)-7-methyl-6-(pyridin-2-yl)-1H-imidazo[4,5-b]pyridin-2(3H)-one] |  | − | − | − | 
CCOc1nc([C@@H](CS(C)(=O)=O)n2c(=O)[nH]c3c(C)c(-c4cc(F)ccc4F)cnc32)ccc1OC [Ex. 27, (S)-6-(2,5-difluorophenyl)-3-(1-(6-ethoxy-5-methoxypyridin-2-yl)-2-(methylsulfonyl)ethyl)-7-methyl-1H-imidazo[4,5-b]pyridin-2(3H)-one] | 3.7 nM |  |  |  | 
CCOc1nc([C@@H](CS(C)(=O)=O)n2c(=O)[nH]c3c(C)c(-c4ccc(C)cc4C)cnc32)ccc1OC [Ex. 31, (S)-6-(2,4-dimethylphenyl)-3-(1-(6-ethoxy-5-methoxypyridin-2-yl)-2-(methylsulfonyl)ethyl)-7-methyl-1H-imidazo[4,5-b]pyridin-2(3H)-one] | 4.1 nM |  |  |  | 
CCOc1nc([C@@H](CS(C)(=O)=O)n2c(=O)[nH]c3c(C)c(-c4ccc(F)cc4C)cnc32)ccc1OC [Ex. 35, (S)-6-(4-fluoro-2-methylphenyl)-3-(1-(6-ethoxy-5-methoxypyridin-2-yl)-2-(methylsulfonyl)ethyl)-7-methyl-1H-imidazo[4,5-b]pyridin-2(3H)-one] | 3.4 nM |  |  |  | 
CCOc1nc([C@@H](CS(C)(=O)=O)n2c(=O)[nH]c3cc(-c4ccccc4C)cnc32)ccc1OC [Ex. 79, (S)-3-(1-(6-ethoxy-5-methoxypyridin-2-yl)-2-(methylsulfonyl)ethyl)-6-(o-methylphenyl)-1H-imidazo[4,5-b]pyridin-2(3H)-one] | 4.7 nM |  |  |  | 
CCOc1nc([C@@H](CS(C)(=O)=O)n2c(=O)n(C)c3cc(-c4ccccc4C)cnc32)ccc1OC [Ex. 80, (S)-3-(1-(6-ethoxy-5-methoxypyridin-2-yl)-2-(methylsulfonyl)ethyl)-1-methyl-6-(o-methylphenyl)-1H-imidazo[4,5-b]pyridin-2(3H)-one] | 6.8 nM |  |  |  | 
